Results reported in patent publication US9273058B2 (BRISTOL-MYERS SQUIBB COMPANY, priority 2013, dated 2016).
Like-named read-outs stand apart in the source and are kept apart here.

Assays:
[1] = target: CK1ε (Homo sapiens, UniProt P49674); assay: CK1ε kinase assay (Caliper LabChip electrophoretic separation of fluoresceinated peptide substrate and product); assay type: biochemical; conditions: 200 pM CK1ε, 50 μM ATP, 1.5 μM peptide, 22 hours at room temperature; read-out: CK1ε IC50 range
How it was run: (§1)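 Compounds, taken from 10 mM DMSO stocks, are titrated at eleven concentrations. Kinase reactions proceed for 22 hours at room temperature and are quenched with EDTA. Substrate and product are resolved electrophoretically, and IC50 values are fitted by non-linear regression.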

[2] = target: CK1δ (Homo sapiens, UniProt P48730); assay: CK1δ kinase assay (Caliper LabChip electrophoretic separation of fluoresceinated peptide substrate and product); assay type: biochemical; conditions: 200 pM CK1δ, 50 μM ATP, 1.5 μM peptide, 22 hours at room temperature
CK1δ, sequence (P48730 whole entry): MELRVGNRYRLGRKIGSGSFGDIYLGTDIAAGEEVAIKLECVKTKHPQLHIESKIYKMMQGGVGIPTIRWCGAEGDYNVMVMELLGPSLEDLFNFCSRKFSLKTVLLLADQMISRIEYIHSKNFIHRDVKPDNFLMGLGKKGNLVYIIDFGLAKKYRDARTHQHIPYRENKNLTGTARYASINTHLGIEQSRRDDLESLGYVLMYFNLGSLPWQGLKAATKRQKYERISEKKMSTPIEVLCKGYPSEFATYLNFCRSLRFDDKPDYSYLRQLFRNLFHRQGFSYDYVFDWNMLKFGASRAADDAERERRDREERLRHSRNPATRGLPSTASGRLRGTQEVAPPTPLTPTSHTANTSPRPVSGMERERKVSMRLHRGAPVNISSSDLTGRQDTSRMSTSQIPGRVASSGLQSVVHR
How it was run: as §1

CK1ε, sequence (P49674 whole entry): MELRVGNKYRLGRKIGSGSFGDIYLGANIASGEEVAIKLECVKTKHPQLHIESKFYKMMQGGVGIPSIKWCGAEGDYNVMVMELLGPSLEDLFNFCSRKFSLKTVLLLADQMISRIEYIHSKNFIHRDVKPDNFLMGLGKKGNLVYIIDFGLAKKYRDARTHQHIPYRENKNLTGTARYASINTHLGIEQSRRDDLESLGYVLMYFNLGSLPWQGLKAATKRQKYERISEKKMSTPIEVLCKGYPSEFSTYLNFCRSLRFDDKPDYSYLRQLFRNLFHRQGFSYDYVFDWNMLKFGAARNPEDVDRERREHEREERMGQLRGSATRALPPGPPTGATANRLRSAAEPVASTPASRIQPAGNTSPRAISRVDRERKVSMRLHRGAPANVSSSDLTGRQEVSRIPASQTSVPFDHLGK

Compound	IC50 [1] [nM]	IC50 ([2]; read-out: CK1δ) [nM]	IC50 ([2]; read-out: CK1δ IC50 range) [nM]
NC(=O)c1c(-c2cccc(F)c2)nn2c1CN(C(=O)Nc1ccncc1)CC2 [Compound 92, 2-(3-Fluorophenyl)-N^5-(pyridin-4-yl)-6,7-dihydropyrazolo[1,5-a]pyrazine-3,5(4H)-dicarboxamide]	100 to 2000	446	100 to 2000
CC(C)(NC(=O)N1CCn2nc(-c3cccc(Cl)c3)c(C(N)=O)c2C1)C1CCC(F)(F)CC1 [Compound 233, 2-(3-Chlorophenyl)-N^5-(2-(4,4-difluorocyclohexyl)propan-2-yl)-6,7-dihydropyrazolo[1,5-a] pyrazine-3,5(4H)-dicarboxamide]	0.01 to 10		0.01 to 10
NC(=O)c1c(-c2cccc(F)c2)nn2c1CN(C(=O)Nc1c(Cl)cccc1C(F)(F)F)CC2 [Compound 65, N^5-(2-Chloro-6-(trifluoromethyl)phenyl)-2-(3-fluorophenyl)-6,7-dihydropyrazolo[1,5-a]pyrazine-3,5(4H)-dicarboxamide]	100 to 2000		100 to 2000
CC1(CNC(=O)N2CCn3nc(-c4ccc(F)c(Cl)c4)c(C(N)=O)c3C2)CC(F)(F)C1 [Compound 229, 2-(3-Chloro-4-fluorophenyl)-N^5-((3,3-difluoro-1-methylcyclobutyl)methyl)-6,7-dihydropyrazolo[1,5-a]pyrazine-3,5(4H)-dicarboxamide]	0.01 to 10		0.01 to 10
CC1(NC(=O)N2CCn3nc(-c4cccc(F)c4)c(C(N)=O)c3C2)CC1 [Compound 11, 2-(3-Fluorophenyl)-N^5-(1-methylcyclopropyl)-6,7-dihydropyrazolo[1,5-a]pyrazine-3,5(4H)-dicarboxamide]	10 to 100		10 to 100
N#Cc1cccc(NC(=O)N2CCn3nc(-c4cccc(F)c4)c(C(N)=O)c3C2)c1 [Compound 54, N^5-(3-Cyanophenyl)-2-(3-fluorophenyl)-6,7-dihydropyrazolo[1,5-a]pyrazine-3,5(4H)-dicarboxamide]	0.01 to 10		0.01 to 10
CC1(NC(=O)N2CCn3nc(-c4ccc(F)c(Cl)c4)c(C(N)=O)c3C2)CC(O)C1 (stereo not drawn) [Compound 260, 2-(3-Chloro-4-fluorophenyl)-N^5-(3-hydroxy-1-methylcyclobutyl)-6,7-dihydropyrazolo[1,5-a]pyrazine-3,5(4H)-dicarboxamide]	0.01 to 10		0.01 to 10
CC(C)(C)NC(=O)N1CCn2nc(-c3cc4ccccc4nc3Cl)c(C(N)=O)c2C1 [Compound 140, N^5-(tert-Butyl)-2-(2-chloroquinolin-3-yl)-6,7-dihydropyrazolo[1,5-a] pyrazine-3,5(4H)-dicarboxamide]	100 to 2000		100 to 2000
NC(=O)c1c(-c2ccc(Cl)c(Cl)c2)nn2c1CN(C(=O)NC1CC3(C1)CC3(F)F)CC2 (single isomer, unassigned) [Compound 325, 2-(3,4-Dichlorophenyl)-N^5-(1,1-difluorospiro[2.3]hexan-5-yl)-6,7-dihydropyrazolo[1,5-a]pyrazine-3,5(4H)-dicarboxamide]	0.01 to 10		0.01 to 10
NC(=O)c1c(-c2ccc(Cl)c(Cl)c2)nn2c1CN(C(=O)N[C@H]1C[C@@H](c3ccc(F)cc3)C1)CC2 [Compound 278, 2-(3,4-Dichlorophenyl)-N^5-((1s,3s)-3-(4-fluorophenyl)cyclobutyl)-6,7-dihydropyrazolo[1,5-a] pyrazine-3,5(4H)-dicarboxamide]	0.01 to 10		0.01 to 10
NC(=O)c1c(-c2cccc(Cl)c2)nn2c1CN(C(=O)NC1(C(F)F)CCC1)CC2 [Compound 236, 2-(3-Chlorophenyl)-N^5-(1-(difluoromethyl)cyclobutyl)-6,7-dihydropyrazolo[1,5-a] pyrazine-3,5(4H)-dicarboxamide]	0.01 to 10		0.01 to 10
N#Cc1ccc(C2(NC(=O)N3CCn4nc(-c5cccc(Cl)c5)c(C(N)=O)c4C3)CC(F)(F)C2)cc1 [Compound 315, 2-(3-Chlorophenyl)-N^5-(1-(4-cyanophenyl)-3,3-difluorocyclobutyl)-6,7-dihydropyrazolo[1,5-a]pyrazine-3,5(4H)-dicarboxamide]	0.01 to 10		0.01 to 10
Cn1nccc1NC(=O)N1CCn2nc(-c3cccc(F)c3)c(C(N)=O)c2C1 [Compound 96, 2-(3-Fluorophenyl)-N^5-(1-methyl-1H-pyrazol-5-yl)-6,7-dihydropyrazolo[1,5-a]pyrazine-3,5(4H)-dicarboxamide]	10 to 100		10 to 100
NC(=O)c1c(-c2ccc(F)c(Cl)c2)nn2c1CN(C(=O)N[C@H]1C[C@@H](F)C1)CC2 [Compound 190, 2-(3-Chloro-4-fluorophenyl)-N^5-((1s,3s)-3-fluorocyclobutyl)-6,7-dihydropyrazolo[1,5-a] pyrazine-3,5(4H)-dicarboxamide]	0.01 to 10		0.01 to 10

Other lines, results leading:

IC50 [1] [nM]	IC50 ([2]; read-out: CK1δ) [nM]	IC50 ([2]; read-out: CK1δ IC50 range) [nM]	Compound
0.01 to 10		0.01 to 10	NC(=O)c1c(-c2cccc(Cl)c2)nn2c1CN(C(=O)NC1CC(F)(F)C1)CC21CC1 [A130]
10 to 100		100 to 2000	CC(C)(C)NC(=O)N1Cc2c(C(N)=O)c(-c3ccc(F)c(Cl)c3)nn2C(C(=O)NC2CC2)C1 (stereo not drawn) [Compound A24, N^5-(tert-Butyl)-2-(3-chloro-4-fluorophenyl)-N^7-cyclopropyl-6,7-dihydropyrazolo[1,5-a]pyrazine-3,5,7(4H)-tricarboxamide]
0.01 to 10		0.01 to 10	NC(=O)c1c(-c2ccc(F)c(Cl)c2)nn2c1CN(C(=O)NC1CC(F)(F)C1)CC21CC1 [Compound A133, 2′-(3-Chloro-4-fluorophenyl)-N^5′-(3,3-difluorocyclobutyl)-4′H-spiro[cyclopropane-1,7′-pyrazolo[1,5-a]pyrazine]-3′,5′(6′H)-dicarboxamide]
0.01 to 10		0.01 to 10	CC1(C)C2CCC1(NC(=O)N1CCn3nc(-c4ccc(F)c(Cl)c4)c(C(N)=O)c3C1)CC2O (stereo not drawn) [Compound A66, 2-(3-Chloro-4-fluorophenyl)-N^5-(3-hydroxy-7,7-dimethylbicyclo[2.2.1]heptan-1-yl)-6,7-dihydropyrazolo[1,5-a]pyrazine-3,5(4H)-dicarboxamide]
0.01 to 10		0.01 to 10	CC(C)(C)NC(=O)N1Cc2c(C(N)=O)c(-c3ccc(Cl)c(Cl)c3)nn2C(C(F)F)C1 (stereo not drawn) [Compound A32, N^5-(tert-Butyl)-2-(3,4-dichlorophenyl)-7-(difluoromethyl)-6,7-dihydropyrazolo[1,5-a]pyrazine-3,5(4H)-dicarboxamide]
10 to 100		10 to 100	CC(C)C1CN(C(=O)NC(C)(C)C)Cc2c(C(N)=O)c(-c3ccc(F)c(Cl)c3)nn21 (single isomer, unassigned) [Compound A119, N^5-(tert-Butyl)-2-(3-chloro-4-fluorophenyl)-7-isopropyl-6,7-dihydropyrazolo[1,5-a]pyrazine-3,5(4H)-dicarboxamide]
0.01 to 10		0.01 to 10	NC(=O)c1c(-c2ccc(F)c(Cl)c2)nn2c1CN(C(=O)NC(CF)(CF)CF)CC2 [Compound A49, 2-(3-Chloro-4-fluorophenyl)-N^5-(1,3-difluoro-2-(fluoromethyl)propan-2-yl)-6,7-dihydropyrazolo[1,5-a] pyrazine-3,5(4H)-dicarboxamide]
10 to 100		10 to 100	CC(C)(C)NC(=O)N1Cc2c(C(N)=O)c(-c3ccc(Cl)c(Cl)c3)nn2C(C(F)F)C1 (stereo not drawn) [Compound A31, N^5-(tert-Butyl)-2-(3,4-dichlorophenyl)-7-(difluoromethyl)-6,7-dihydropyrazolo[1,5-a]pyrazine-3,5(4H)-dicarboxamide]
